Source: publication PMC6952414 (Nature Communications, 2020)
Values joined by “and” are separate entries in the source; they are usually repeats but may differ in a detail not shown here. Equal entries are not always repeated. Where two headings read alike, the source gives them in different places. Positions of bridges follow the written chain, without caps; N, C: chain ends. Non-standard residues stand in square brackets, D forms with d. Chains are numbered I, II in the order given. No end group written: not given here. Ahx = NCCCCCC(=O)O

Key:
IAV strain PR8 [1] = type: cell-based, IAV H1N1 strain A/Puerto Rico/8/1934 (PR8)
IAV strain PR8 [2] = type: cell-based, IAV H1N1 strain A/Puerto Rico/8/1934 (PR8); remark: listed apart in the source
IAV strain PR8 [3] = type: cell-based, IAV H1N1 strain A/Puerto Rico/8/1934 (PR8); remark: listed apart in the source
virus NP mRNA = type: cell-based, IAV H1N1 strain A/Puerto Rico/8/1934 (PR8)
PR8-HA0 = type: binding, IAV H1N1 strain A/Puerto Rico/8/1934 (PR8)
PR8-HA1/HA2 = type: binding, IAV H1N1 strain A/Puerto Rico/8/1934 (PR8)
IAV strain PR8 [4] = type: cell-based, IAV H1N1 strain A/Puerto Rico/8/1934 (PR8); remark: listed apart in the source
IAV strain PR8 [5] = tested on: IAV strain PR8
MDCK cells [6] = tested on: MDCK cells
IAV strain PR8 [7] = assay: microbe, parasite or virus in culture; conditions: Influenza A virus, PR8, MDCK, read-out: EC50 (μM), IAV cytopathicity
IAV strain PR8 [8] = tested on: IAV strain PR8; set-up: species or system BALB/c mice; conditions: mouse, in vivo
MDCK cells [9] = conditions: 5 mM for 16 h
cell surface HA = type: cell-based, IAV H1N1 strain A/Puerto Rico/8/1934 (PR8)
IAV strain PR8 [10] = tested on: IAV strain PR8; remark: listed apart in the source
[11] = biological target: immobilized recombinant HA (Influenza A virus, UniProt P03452); type: binding, IAV H1N1 strain A/Puerto Rico/8/1934 (PR8)
IAV strain PR8 [12] = type: cell-based, IAV H1N1 strain A/Puerto Rico/8/1934 (PR8); remark: listed apart in the source
HA [13] = type: cell-based, IAV H1N1 strain A/Puerto Rico/8/1934 (PR8)
HA [14] = type: biochemical, IAV H1N1 strain A/Puerto Rico/8/1934 (PR8)
IAV strain PR8 [15] = type: cell-based, IAV H1N1 strain A/Puerto Rico/8/1934 (PR8); remark: listed apart in the source
IAV strain PR8 [16] = type: cell-based, IAV H1N1 strain A/Puerto Rico/8/1934 (PR8); remark: listed apart in the source
LC3-II = type: cell-based, canine
IAV strain PR8 [17] = type: cell-based, IAV H1N1 strain A/Puerto Rico/8/1934 (PR8); remark: listed apart in the source
HA1/HA2 = type: binding, IAV H1N1 strain A/Puerto Rico/8/1934 (PR8)
[18] = tested on: recombinant HA / α2-6sialyllactose-PAA; type: binding, IAV H1N1 strain A/Puerto Rico/8/1934 (PR8)
[19] = tested on: recombinant HA derived from H5N1 A/chicken/Yamaguchi/7/2004 strain; type: binding, Influenza A virus H5N1
[20] = tested on: IAV particles (strain PR8); type: biochemical, IAV H1N1 strain A/Puerto Rico/8/1934 (PR8)
IAV strain PR8 [21] = type: cell-based, IAV H1N1 strain A/Puerto Rico/8/1934 (PR8); remark: listed apart in the source
IAV strain PR8 [22] = type: cell-based, IAV H1N1 strain A/Puerto Rico/8/1934 (PR8); remark: listed apart in the source

immobilized recombinant HA, sequence (P03452 18-565 limits assumed): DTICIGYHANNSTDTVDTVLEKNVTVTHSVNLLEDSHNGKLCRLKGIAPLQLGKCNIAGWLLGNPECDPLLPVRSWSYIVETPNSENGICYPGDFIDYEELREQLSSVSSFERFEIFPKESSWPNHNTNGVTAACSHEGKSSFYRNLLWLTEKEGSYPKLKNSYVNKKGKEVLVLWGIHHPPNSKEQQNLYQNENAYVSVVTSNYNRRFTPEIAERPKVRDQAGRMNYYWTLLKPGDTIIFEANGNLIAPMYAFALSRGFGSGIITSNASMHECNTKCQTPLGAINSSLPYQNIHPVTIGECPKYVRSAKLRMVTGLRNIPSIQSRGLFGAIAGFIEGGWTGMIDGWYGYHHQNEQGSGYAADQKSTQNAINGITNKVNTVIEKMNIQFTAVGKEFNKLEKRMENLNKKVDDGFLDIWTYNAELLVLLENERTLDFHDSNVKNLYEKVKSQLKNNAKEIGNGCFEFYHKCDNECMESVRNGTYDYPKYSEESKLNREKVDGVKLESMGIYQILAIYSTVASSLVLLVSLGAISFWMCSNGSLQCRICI

Compound: CO/C1=C\C(C)=C\[C@@H](C)[C@@H](O)[C@@H](C)C/C(C)=C/C=C/[C@H](OC)[C@@H]([C@@H](C)[C@@H](O)[C@H](C)[C@@]2(O)C[C@@H](O)[C@H](C)[C@@H](C(C)C)O2)OC1=O [bafilomycin A1]
- fusion process monitored by fluorescently labeled virus (in words) (IAV strain PR8 [1]): efficiently inhibited both events
- time of administration after initial IAV infection at which cytopathicity is still inhibited (IAV strain PR8 [2]): < 5 h
- NP-positive cells (%) (IAV strain PR8 [3]): 5.3% and 2.2% and 2.8% and 3.8%
- virus entry into target cells, NP-positive cells (in words) (IAV strain PR8 [3]): completely inhibited virus entry into cells
- NP mRNA synthesis (in words) (virus NP mRNA): efficiently inhibited both events
- Relative mRNA expression (fold increase) (virus NP mRNA): 0.134 fold increase and 0.131 fold increase and 0.156 fold increase and 0.244 fold increase and 0.237 fold increase and 0.138 fold increase and 0.155 fold increase

Compound: asialofetuin [reference compound]
- binding to non-infectious IAV particles with HA0 (in words) (PR8-HA0): exhibited no binding
- binding to infectious IAV particles with HA1/HA2 (in words) (PR8-HA1/HA2): exhibited no binding

Compound: C[C@@H]1COCCN1c1cc(=O)n2c(n1)N(Cc1cncc(Cl)c1)[C@H](C(F)(F)F)CC2 [SAR405]
- effect on the dose-dependent anti-viral activity of PVF-tet (in words) (IAV strain PR8 [4]): suppressed the dose-dependent anti-viral activity of PVF-tet

Compound: RRRVNHH [RVH-tet]
- inhibition of IAV cytopathicity (in words) (IAV strain PR8 [5]): efficiently inhibited the cytopathicity in a dose-dependent manner

Compound: RRPVNHD [PVD-tet]
- inhibition of IAV cytopathicity (in words) (IAV strain PR8 [5]): failed to inhibit IAV cytopathicity
- incorporation into MDCK cells (in words) (MDCK cells [6]): less cell-penetrating

Compound: CC(=O)N[C@H]1[C@H]([C@H](O)[C@H](O)CO)OC(C(=O)O)=C[C@@H]1N=C(N)N [Zanamivir, zanamivir]
- EC50 (IAV strain PR8 [7]): 0.2 µM
- body weight loss (in words) (IAV strain PR8 [8]): attenuated the weight loss
- mice rescued from mortality (IAV strain PR8 [8]): 100%

Compound: 3-MA
- cell viability of uninfected MDCK cells (in words) (MDCK cells [9]): did not affect the cell viability

Compound: I: MARRPVNHFA[Ahx]KK-NH2 / II: MARRPVNHFA[Ahx]K / III: MARRPVNHFA[Ahx] / IV: MARRPVNHFA[Ahx] (amide I:12-IV:C, I:13-II:C, II:12-III:C) [PVF-tet]
- amount of HA on the plasma membrane (in words) (cell surface HA): marked reduction of the amount of HA that was present on the plasma membrane
- fusion process monitored by fluorescently labeled virus (in words) (IAV strain PR8 [1]): did not affect the fusion process
- inhibition of IAV cytopathicity in Caco-2 cells (in words) (IAV strain PR8 [10]): equally inhibited cytopathicity induced by both low and high MOI infection
- time of administration after initial IAV infection at which cytopathicity is still inhibited (IAV strain PR8 [2]): up to 9 h
- NP-positive cells (%) (IAV strain PR8 [3]): 51.6% and 50.5% and 44.6% and 50.0%
- virus entry into target cells, NP-positive cells (in words) (IAV strain PR8 [3]): did not inhibit virus entry into target cells
- Rmax [11]: 1004 RU
- binding to HA (in words) [11]: bound to HA with high affinity
- binding to non-infectious IAV particles with HA0 (in words) (PR8-HA0): did bind with remarkable efficacy to non-infectious IAV particles with HA0
- binding to infectious IAV particles with HA1/HA2 (in words) (PR8-HA1/HA2): did not bind to infectious IAV particles with HA1/HA2
- fold increase of virus titer over the initial virus titer (IAV strain PR8 [12]): about 50 fold
- inhibition of IAV propagation (in words) (IAV strain PR8 [12]): inhibited IAV propagation to a greater degree than fetuin
- amount of newly synthesized HA in infected cells (in words) (HA [13]): accumulated in a time-dependent manner
- formation of highly clustered HA (in words) (HA [14]): induced the formation of highly clustered HA
- EC50 (IAV strain PR8 [5]; 24 h): 1400 nM
- Cell viabilitiy(%) (IAV strain PR8 [15]): 136.2% and 97.5% and 109.1% and 71.8% and 88.5% and 71.7%
- anti-IAV activity in the ABCA3-knockout clone (in words) (IAV strain PR8 [15]): retained its anti-IAV activity
- anti-viral activity in PIK3C3-knockout clones (in words) (IAV strain PR8 [16]): significantly suppressed in the clones
- formation of LC3-II (in words) (LC3-II): further enhanced the formation of LC3-II
- cell viability (IAV strain PR8 [17]): 103 ± 9% and 85 ± 9%
- inhibition of cytopathicity when treated from 2 h post-infection for limited periods (in words) (IAV strain PR8 [17]): still efficiently inhibited the cytotoxicity
- effect of proteolytic cleavage of recombinant HA into HA1/HA2 on binding (in words) (HA1/HA2): reduced the binding of PVF-tet to HA
- inhibition of the interaction between HA and α2,6-sialyllactose polymer (in words) [18]: also efficiently inhibited the binding of HA to α2-6 sialyllactose-polymer
- binding to recombinant H5N1 HA (in words) [19]: bound
- inhibition of IAV-induced hemagglutination (in words) [20]: did not inhibit IAV-induced hemagglutination
- NP mRNA synthesis (in words) (virus NP mRNA): did not affect
- anti-viral activity in ULK1-knockout clones (in words) (IAV strain PR8 [21]): significantly suppressed in the clones
- effect of FBS on incorporation into cells (in words) (MDCK cells [6]): enhanced by the presence of fetal bovine serum (FBS)
- incorporation into MDCK cells (in words) (MDCK cells [6]): can be incorporated into MDCK cells at 37 °C

Compound: CSCC[C@H](N)C(=O)N[C@@H](C)C(=O)N[C@@H](C)C(=O)NCCCCCC(=O)NCCCC[C@H](NC(=O)CCCCCNC(=O)[C@H](C)NC(=O)[C@H](C)NC(=O)[C@@H](N)CCSC)C(=O)NCCCC[C@H](NC(=O)[C@H](CCCCNC(=O)CCCCCNC(=O)[C@H](C)NC(=O)[C@H](C)NC(=O)[C@@H](N)CCSC)NC(=O)CCCCCNC(=O)[C@H](C)NC(=O)[C@H](C)NC(=O)[C@@H](N)CCSC)C(=O)O [MA-tet]
- inhibition of IAV cytopathicity (in words) (IAV strain PR8 [5]): did not inhibit the cytopathicity

Compound: fetuin
- inhibition of IAV cytopathicity at low MOI (in words) (IAV strain PR8 [22]): had the greatest inhibitory effect
- binding to non-infectious IAV particles with HA0 (in words) (PR8-HA0): exhibited much more binding
- Virus propagation (fold increase) (IAV strain PR8 [12]): 350.0 fold increase and 466.7 fold increase and 483.3 fold increase
- inhibition of IAV cytopathicity (in words) (IAV strain PR8 [5]): showed no inhibitory effect at all
- effect of proteolytic cleavage of recombinant HA into HA1/HA2 on binding (in words) (HA1/HA2): also reduced by the cleavage of HA
- inhibition of IAV-induced hemagglutination (in words) [20]: efficiently inhibited the activity
